Laboratory results from patent publication US11986493B2 (University of Pittsburgh—Of the Commonwealth System of …, priority 2013, dated 2024).

Tested on: subjects with pulmonary hypertension
Test: Systemic blood pressure (noninvasive) and heart rate monitoring during the study
Experimental: During the study right heart/pulmonary artery hemodynamics were measured as well as noninvasive systemic blood pressure monitoring and simultaneous RV echocardiography. Subjects were tested for the changes in pulmonary vascular resistance (PVR) measured by right heart catheterization and using thermodilution cardiac output measurement at time zero, at times 15, 30 and 45 minutes after completion of each nebulization dose.
Subjects were monitored closely for changes in blood pressure during the study. […] Subjects were continued to be monitored closely every 10 minutes for 2 hours.

[1] = Patient 1, nitrite 45 mg inhaled, 15 min
[2] = Patient 1, nitrite 45 mg inhaled, 30 min
[3] = Patient 1, nitrite 45 mg inhaled, 45 min
[4] = Patient 1, nitrite 45 mg inhaled, 60 min
[5] = Patient 1, nitrite 90 mg inhaled, 15 min
[6] = Patient 1, nitrite 90 mg inhaled, 30 min
[7] = Patient 1, nitrite 90 mg inhaled, 45 min
[8] = Patient 1, nitrite 90 mg inhaled, 60 min
[9] = Patient 2, nitrite 45 mg inhaled, 15 min
[10] = Patient 2, nitrite 45 mg inhaled, 30 min
[11] = Patient 2, nitrite 45 mg inhaled, 45 min
[12] = Patient 2, nitrite 45 mg inhaled, 60 min
[13] = Patient 2, nitrite 90 mg inhaled, 15 min
[14] = Patient 2, nitrite 90 mg inhaled, 30 min
[15] = Patient 2, nitrite 90 mg inhaled, 45 min
[16] = Patient 2, nitrite 90 mg inhaled, 60 min
[17] = Patient 3, nitrite 45 mg inhaled, 15 min
[18] = Patient 3, nitrite 45 mg inhaled, 30 min
[19] = Patient 3, nitrite 45 mg inhaled, 45 min
[20] = Patient 3, nitrite 45 mg inhaled, 60 min
[21] = Patient 3, nitrite 90 mg inhaled, 15 min
[22] = Patient 3, nitrite 90 mg inhaled, 30 min
[23] = Patient 3, nitrite 90 mg inhaled, 45 min
[24] = Patient 3, nitrite 90 mg inhaled, 60 min

O=NO [nitrite, sodium nitrite]
HR [1]: 81 | Systemic DBP [1]: 71 | Systemic SBP [1]: 109 | Systemic mBP [1]: 83.68 | HR [2]: 83 | Systemic DBP [2]: 78 | Systemic SBP [2]: 108 | Systemic mBP [2]: 88.01 | HR [3]: 82 | Systemic DBP [3]: 72 | Systemic SBP [3]: 109 | Systemic mBP [3]: 84.34 | HR [4]: 88 | Systemic DBP [4]: 78 | Systemic SBP [4]: 108 | Systemic mBP [4]: 88.01 | HR [5]: 93 | Systemic DBP [5]: 67 | Systemic SBP [5]: 97 | Systemic mBP [5]: 77.01 | HR [6]: 93 | Systemic DBP [6]: 66 | Systemic SBP [6]: 102 | Systemic mBP [6]: 78.01 | HR [7]: 94 | Systemic DBP [7]: 62 | Systemic SBP [7]: 102 | Systemic mBP [7]: 75.34 | HR [8]: 92 | Systemic DBP [8]: 67 | Systemic SBP [8]: 105 | Systemic mBP [8]: 79.68 | HR [9]: 74 | Systemic DBP [9]: 82 | Systemic SBP [9]: 136 | Systemic mBP [9]: 100.01 | HR [10]: 73 | Systemic DBP [10]: 75 | Systemic SBP [10]: 137 | Systemic mBP [10]: 95.68 | HR [11]: 75 | Systemic DBP [11]: 75 | Systemic SBP [11]: 137 | Systemic mBP [11]: 95.68 | HR [12]: 77 | Systemic DBP [12]: 68 | Systemic SBP [12]: 132 | Systemic mBP [12]: 89.34 | HR [13]: 74 | Systemic DBP [13]: 76 | Systemic SBP [13]: 142 | Systemic mBP [13]: 98.01 | HR [14]: 74 | Systemic DBP [14]: 77 | Systemic SBP [14]: 132 | Systemic mBP [14]: 95.34 | HR [15]: 76 | Systemic DBP [15]: 81 | Systemic SBP [15]: 141 | Systemic mBP [15]: 101.01 | HR [16]: 77 | Systemic DBP [16]: 78 | Systemic SBP [16]: 143 | Systemic mBP [16]: 99.68 | HR [17]: 63 | Systemic DBP [17]: 55 | Systemic SBP [17]: 96 | Systemic mBP [17]: 68.67 | HR [18]: 51 | Systemic DBP [18]: 56 | Systemic SBP [18]: 95 | Systemic mBP [18]: 69.01 | HR [19]: 67 | Systemic DBP [19]: 59 | Systemic SBP [19]: 92 | Systemic mBP [19]: 70.01 | HR [20]: 63 | Systemic DBP [20]: 52 | Systemic SBP [20]: 106 | Systemic mBP [20]: 70.01 | HR [21]: 68 | Systemic DBP [21]: 54 | Systemic SBP [21]: 100 | Systemic mBP [21]: 69.34 | HR [22]: 71 | Systemic DBP [22]: 58 | Systemic SBP [22]: 102 | Systemic mBP [22]: 72.68 | HR [23]: 70 | Systemic DBP [23]: 54 | Systemic SBP [23]: 100 | Systemic mBP [23]: 69.34 | HR [24]: 72 | Systemic DBP [24]: 59 | Systemic SBP [24]: 103 | Systemic mBP [24]: 73.68 | HR (Patient 4, nitrite 45 mg inhaled, 15 min): 72
